Measured values published in PubChem BioAssay (NCI).
Where “and” joins values, the source holds several entries; their conditions need not be identical. Equal entries are not always repeated.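 Five compound concentrations were applied to cells in 96-well plates for 48 hours; endpoints were derived by simple linear interpolation of the resulting dose-response curve. GI50 = concentration required for 50% inhibition of growth. TGI marks complete inhibition of growth.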

tested on: EKVX NSCLC; assay: NCI tumour cell line growth inhibition, 48 h

**Q.** For `NNC(=O)/C(=C/c1ccc(Cl)c(Cl)c1)NC(=O)c1ccccc1`, which TGI is on record?
**A.** > 100 µM

**Q.** For `CC(=O)OCC1OC(N2C(=O)C(=O)c3cc(C)ccc32)C(OC(C)=O)C(OC(C)=O)C1OC(C)=O` (stereo not given), which TGI is on record?
**A.** > 100 µM

**Q.** With `O=C1c2ccccc2-c2cccc3ccc(Cc4ccc5ccccc5c4)c1c23` as the compound, how does the TGI read?
**A.** > 100 µM

**Q.** With `COc1cc(Cl)c2c3c(c(C(C)=O)oc13)CCC2` as the compound, how does the TGI read?
**A.** > 100 µM

**Q.** With `Nc1ccc(N(S(=O)(=O)c2ccccc2)S(=O)(=O)c2ccccc2)c(Cl)c1` as the compound, how does the TGI read?
**A.** > 100 µM

**Q.** With `CCCCc1c2c(nc3c1CCC/C3=C\c1ccccc1)C(=O)CCC2` as the compound, how does the TGI read?
**A.** 68.4 µM

**Q.** How did the TGI turn out when `COc1ccc([N+]2=NC(c3ccc([N+](=O)[O-])cc3)=NN(c3ccccc3)C2)cc1` was run?
**A.** > 100 µM

**Q.** With `C=CC1(C(=O)O)CCC(C(C)(C)C)CC1` (stereo not given) as the compound, how does the TGI read?
**A.** > 100 µM

**Q.** For `NC(=O)C(=Cc1ccc(C(O)P(=O)(O)O)cc1)C(N)=O` (stereo not given), which TGI is on record?
**A.** > 100 µM

**Q.** Which GI50 does the source give for `CC(C)(C#N)c1cc(Cn2cncn2)cc(C(C)(C)C#N)c1` here?
**A.** 400 µM

**Q.** And the TGI?
**A.** > 10000 µM

**Q.** For `O=C(Nc1cc(Cl)c(Cl)cc1Cl)C(=O)C1C=CCS1(=O)=O` (stereo not given), which TGI is on record?
**A.** > 100 µM

**Q.** With `CCNC(=O)CCN(C(=O)O)S(=O)(=O)c1ccc(NC(=O)c2ccccc2)cc1` as the compound, how does the TGI read?
**A.** > 100 µM

**Q.** `O=C(/C=C/c1ccc([N+](=O)[O-])o1)N1CCN(Cc2ccccc2)CC1` was tested. Which TGI did it give?
**A.** 38.2 µM

**Q.** With `CC1C[C@@]2(c3ccccc3)C(=O)CCC[C@H]2N1` (stereo not given in full) as the compound, how does the TGI read?
**A.** > 100 µM

**Q.** For `O=[N+]([O-])c1cccc(/C=N\NS(=O)(=O)c2ccc(Cl)cc2)c1O`, which TGI is on record?
**A.** > 100 µM

**Q.** For `CC1=C(C(=O)Nc2ccccc2C)C(c2ccc(Cl)c(Cl)c2)C(C(=O)Nc2ccccc2C)=C(C)N1`, which TGI is on record?
**A.** > 100 µM

**Q.** `CCCCOC(=O)NC(=O)c1cn(CCCOC(=O)CCCCCCCCC(=O)OCCCn2cc(C(=O)NC(=O)OCCCC)c(=O)[nH]c2=O)c(=O)[nH]c1=O` was tested. Which TGI did it give?
**A.** > 100 µM

**Q.** For `Cc1[nH]c2ccccc2c1C1Cc2ccccc2N1C(=O)/C=C\C(=O)O` (stereo not given), which TGI is on record?
**A.** > 100 µM

**Q.** With `CCOC(=O)c1cc(C#N)c(=O)n(/N=C(\C)c2ccncc2)c1O` as the compound, how does the GI50 read?
**A.** > 100 µM

**Q.** And the TGI?
**A.** > 100 µM

tested on: OVCAR-3 ovarian; assay: NCI tumour cell line growth inhibition, 48 h

**Q.** For `COc1cc2c(cc1OCCCOc1cc3c(cc1OC)C(=O)N1C[C@H](F)C[C@H]1C=N3)N=C[C@@H]1C[C@@H](F)CN1C2=O`, which GI50 is on record?
**A.** 9.75 µM

**Q.** And the TGI?
**A.** 26 µM

**Q.** For `c1ccc2c(c1)CCC/C2=N\OCC1CO1` (stereo not given), which TGI is on record?
**A.** > 100 µM

**Q.** How did the TGI turn out when `CC/C(C)=C1\CCC(CN2CCOCC2)C1=O` (stereo not given) was run?
**A.** 29.5 µM

**Q.** Which TGI does the source give for `COC(=O)C1C(C(=O)OC)C2(OC)c3ccccc3-c3ccccc3C12` (stereo not given) here?
**A.** > 100 µM

**Q.** Which TGI does the source give for `O=C1OC(CC(=O)c2ccc(Cl)c(Cl)c2)C(Cl)=C1Cl` (stereo not given) here?
**A.** > 100 µM

**Q.** For `CC(=O)c1cccc(N2COC(C)(C)c3nc4ccccc4n3C2)c1`, which TGI is on record?
**A.** > 100 µM

**Q.** With `O=[N+]([O-])c1cccc(C2N3CCCCC3[C@@H]3c4[nH]c5ccccc5c4CCN23)c1` (stereo not given in full) as the compound, how does the TGI read?
**A.** 32.2 µM

**Q.** Which TGI does the source give for `Cc1c[nH]c2c(O)cc3c(c12)[C@H](CCl)CN3C(=O)c1cc2cc(NC(=O)Nc3ccc4[nH]c(C(=O)N5C[C@@H](CCl)c6c5cc(O)c5[nH]cc(C)c65)cc4c3)ccc2[nH]1` here?
**A.** 43.2 µM

**Q.** How did the TGI turn out when `CCOC(=O)NC(=O)c1cn(CC(=O)NCC(=O)NCC(=O)NCCCN2CCN(CCCNC(=O)CNC(=O)CNC(=O)Cn3cc(C(=O)NC(=O)OCC)c(=O)[nH]c3=O)CC2)c(=O)[nH]c1=O` was run?
**A.** > 100 µM

**Q.** For `O=S(=O)(N/N=C/c1ccc(/C=N/NS(=O)(=O)c2ccccc2)cc1)c1ccccc1`, which TGI is on record?
**A.** > 100 µM

**Q.** Which TGI does the source give for `CC[C@@H]1OC2(C)CC(S(=O)(=O)c3ccccc3O)CC1O2` (stereo not given in full) here?
**A.** > 100 µM

**Q.** What does the source list for `CCOC(=O)C(N)C[S][Sn]([CH3])([CH3])[Cl]` (stereo not given)?
**A.** GI50: > 100 µM; TGI: > 100 µM

**Q.** Which TGI does the source give for `NNC(=O)/C(=C/c1ccc(Cl)c(Cl)c1)NC(=O)c1ccccc1` here?
**A.** > 100 µM

**Q.** How did the TGI turn out when `CC(=O)OCC1OC(N2C(=O)C(=O)c3cc(C)ccc32)C(OC(C)=O)C(OC(C)=O)C1OC(C)=O` (stereo not given) was run?
**A.** > 100 µM

**Q.** With `O=C1c2ccccc2-c2cccc3ccc(Cc4ccc5ccccc5c4)c1c23` as the compound, how does the TGI read?
**A.** > 100 µM

**Q.** With `COc1cc(Cl)c2c3c(c(C(C)=O)oc13)CCC2` as the compound, how does the TGI read?
**A.** > 100 µM

**Q.** How did the TGI turn out when `CCCCc1c2c(nc3c1CCC/C3=C\c1ccccc1)C(=O)CCC2` was run?
**A.** 33.4 µM

**Q.** For `COc1ccc([N+]2=NC(c3ccc([N+](=O)[O-])cc3)=NN(c3ccccc3)C2)cc1`, which TGI is on record?
**A.** > 100 µM

**Q.** With `C=CC1(C(=O)O)CCC(C(C)(C)C)CC1` (stereo not given) as the compound, how does the TGI read?
**A.** > 100 µM

**Q.** `NC(=O)C(=Cc1ccc(C(O)P(=O)(O)O)cc1)C(N)=O` (stereo not given) was tested. Which TGI did it give?
**A.** > 100 µM

**Q.** With `CC(C)(C#N)c1cc(Cn2cncn2)cc(C(C)(C)C#N)c1` as the compound, how does the GI50 read?
**A.** > 10000 µM

**Q.** What about the TGI of the same compound?
**A.** > 10000 µM

**Q.** `O=C(Nc1cc(Cl)c(Cl)cc1Cl)C(=O)C1C=CCS1(=O)=O` (stereo not given) was tested. Which TGI did it give?
**A.** > 100 µM

**Q.** Which TGI does the source give for `CCNC(=O)CCN(C(=O)O)S(=O)(=O)c1ccc(NC(=O)c2ccccc2)cc1` here?
**A.** > 100 µM

**Q.** For `O=C(/C=C/c1ccc([N+](=O)[O-])o1)N1CCN(Cc2ccccc2)CC1`, which TGI is on record?
**A.** 31.7 µM

**Q.** Which TGI does the source give for `CC1C[C@@]2(c3ccccc3)C(=O)CCC[C@H]2N1` (stereo not given in full) here?
**A.** > 100 µM

**Q.** For `O=[N+]([O-])c1cccc(/C=N\NS(=O)(=O)c2ccc(Cl)cc2)c1O`, which TGI is on record?
**A.** > 100 µM

**Q.** For `CC1=C(C(=O)Nc2ccccc2C)C(c2ccc(Cl)c(Cl)c2)C(C(=O)Nc2ccccc2C)=C(C)N1`, which TGI is on record?
**A.** 49.8 µM

**Q.** For `CCCCOC(=O)NC(=O)c1cn(CCCOC(=O)CCCCCCCCC(=O)OCCCn2cc(C(=O)NC(=O)OCCCC)c(=O)[nH]c2=O)c(=O)[nH]c1=O`, which TGI is on record?
**A.** > 100 µM

**Q.** With `Cc1[nH]c2ccccc2c1C1Cc2ccccc2N1C(=O)/C=C\C(=O)O` (stereo not given) as the compound, how does the TGI read?
**A.** > 100 µM

**Q.** With `CCOC(=O)c1cc(C#N)c(=O)n(/N=C(\C)c2ccncc2)c1O` as the compound, how does the GI50 read?
**A.** > 100 µM

**Q.** What about the TGI of the same compound?
**A.** > 100 µM

tested on: A498 renal; assay: NCI tumour cell line growth inhibition, 48 h

**Q.** With `c1ccc2c(c1)CCC/C2=N\OCC1CO1` (stereo not given) as the compound, how does the TGI read?
**A.** > 100 µM

**Q.** How did the TGI turn out when `CC/C(C)=C1\CCC(CN2CCOCC2)C1=O` (stereo not given) was run?
**A.** 39.1 µM

**Q.** With `COC(=O)C1C(C(=O)OC)C2(OC)c3ccccc3-c3ccccc3C12` (stereo not given) as the compound, how does the TGI read?
**A.** > 100 µM

**Q.** With `O=C1OC(CC(=O)c2ccc(Cl)c(Cl)c2)C(Cl)=C1Cl` (stereo not given) as the compound, how does the TGI read?
**A.** > 100 µM

**Q.** `CC(=O)c1cccc(N2COC(C)(C)c3nc4ccccc4n3C2)c1` was tested. Which TGI did it give?
**A.** > 100 µM

**Q.** With `O=[N+]([O-])c1cccc(C2N3CCCCC3[C@@H]3c4[nH]c5ccccc5c4CCN23)c1` (stereo not given in full) as the compound, how does the TGI read?
**A.** 29.5 µM

**Q.** Which TGI does the source give for `Cc1c[nH]c2c(O)cc3c(c12)[C@H](CCl)CN3C(=O)c1cc2cc(NC(=O)Nc3ccc4[nH]c(C(=O)N5C[C@@H](CCl)c6c5cc(O)c5[nH]cc(C)c65)cc4c3)ccc2[nH]1` here?
**A.** 75.7 nM and 15 µM and 0.00215 µg/mL

**Q.** Which TGI does the source give for `CCOC(=O)NC(=O)c1cn(CC(=O)NCC(=O)NCC(=O)NCCCN2CCN(CCCNC(=O)CNC(=O)CNC(=O)Cn3cc(C(=O)NC(=O)OCC)c(=O)[nH]c3=O)CC2)c(=O)[nH]c1=O` here?
**A.** > 100 µM

**Q.** How did the TGI turn out when `O=S(=O)(N/N=C/c1ccc(/C=N/NS(=O)(=O)c2ccccc2)cc1)c1ccccc1` was run?
**A.** > 100 µM

**Q.** Which TGI does the source give for `CC(=O)OCC1OC(N2C(=O)C(=O)c3cc(C)ccc32)C(OC(C)=O)C(OC(C)=O)C1OC(C)=O` (stereo not given) here?
**A.** > 100 µM

**Q.** Which TGI does the source give for `COc1cc(Cl)c2c3c(c(C(C)=O)oc13)CCC2` here?
**A.** > 100 µM

**Q.** With `Nc1ccc(N(S(=O)(=O)c2ccccc2)S(=O)(=O)c2ccccc2)c(Cl)c1` as the compound, how does the TGI read?
**A.** 98.2 µM

**Q.** `CCCCc1c2c(nc3c1CCC/C3=C\c1ccccc1)C(=O)CCC2` was tested. Which TGI did it give?
**A.** 61.4 µM

**Q.** How did the TGI turn out when `COc1ccc([N+]2=NC(c3ccc([N+](=O)[O-])cc3)=NN(c3ccccc3)C2)cc1` was run?
**A.** > 100 µM

**Q.** `C=CC1(C(=O)O)CCC(C(C)(C)C)CC1` (stereo not given) was tested. Which TGI did it give?
**A.** > 100 µM
